Experimental data as given in a melting point compilation (Tetko et al.; mined from patent text by program, amines drawn as free bases though some values may be those of a salt).

Structure (SMILES)	melting point [°C]
O=C1CCc2cc(OCc3ccccc3)c(O)c([N+](=O)[O-])c21	252 to 254
COc1cc2ncc(C#N)c(Nc3ccccc3C)c2cc1OC	137 to 141
O=C(Nc1cccc(Oc2cccc(C(=O)O)c2)c1)NC12CC3CC(CC(C3)C1)C2	152 to 154
COC(=O)c1cn2c(n1)COc1ccc([N+](=O)[O-])cc1-2	270 to 272
COc1ccc(C2CCCC(=O)O2)cc1 (stereo not drawn)	57.5 to 59.5
Cc1ccc(S(=O)(=O)C(C)(C)C(=O)c2ccccc2)cc1	64 to 64.5
N#Cc1ccc(C(=O)N2CCNC2=Nc2c(Cl)cccc2Cl)cc1	208 to 210
COC(=O)c1cc(Cl)c(Cl)c(C2=NOCC2)c1C	74 to 76
CC(=O)Nc1ccc(/C=C/C(=O)NCC(=O)N(C)c2ccc(C)c(CCl)c2C)cn1	218 to 220
CC(C)C[C@@H](C#N)NC(=O)[C@@H]1CCCC[C@@H]1NC(=O)c1ccc(-n2cncn2)cc1	156 to 159
CCN(CC)C(=O)CCc1nc(-c2ccccn2)nc2ccccc12	130
N#CC1(c2ccc(F)cc2)CCC(N2CCC(C(=O)O)(c3ccccc3)CC2)CC1 (stereo not drawn)	281
Cc1cc(-c2c(-c3ccc(S(C)(=O)=O)cc3)cnn(-c3ccc(F)c(F)c3)c2=O)ccc1F	166 to 168
CNC(=O)CC1CN=C(c2cc3cc(Oc4ccc(COC)nc4)cc(OC)c3[nH]2)S1 (stereo not drawn)	102 to 104
COCCCn1nnnc1-c1cc(-c2cccc(C(=O)OC)c2)c(OCc2ccccc2)cc1OCc1ccccc1	105 to 108
O=C(NCCN1CCN(c2ncccn2)CC1)NC12CC3CC(CC(C3)C1)C2	170 to 171
CCOC(=O)c1ccc(NCC(C)Oc2ccc(Cl)c3ccccc23)cc1 (stereo not drawn)	122
O=c1[nH]cc(C=CBr)c(=O)[nH]1	> 320
NCC1COc2cc(Cl)cc(-c3ccc(C(F)(F)F)cc3C(F)(F)F)c2N1 (stereo not drawn)	98
CCOP(C)(=O)CC(CC(C)C)NS(=O)(=O)c1ccc(C)cc1 (stereo not drawn)	96 to 105
O=C1c2ccccc2-c2[nH]nc(-c3ccncc3)c21	> 300
Cc1cc(C(N)=O)ncc1C(c1c(F)ccc(F)c1F)S(=O)(=O)CCC(F)(F)F (stereo not drawn)	190 to 191
Cc1cc(C)c2ncc(NC(=O)Cc3cc(C(C)(C)C)c(O)c(C(C)(C)C)c3)c(-c3ccccc3Cl)c2c1	189 to 190
CC(C)c1ccc(NC(=O)C2CCCc3ccccc32)cn1 (stereo not drawn)	156
CCOC(=O)c1cc(C#N)c(C=O)nc1NC	137 to 139

Structure (SMILES)	melting point [°C]
Cc1ccc(C(=O)c2cc(CN3CCOCC3)c(O)c(C(C)(C)C)c2)cc1	131 to 133
O=C(NCCn1cncn1)c1sc2ccccc2c1Cl	151 to 152
COc1cc(Br)c(OC)c2c1C=CCC2	110 to 111
Cn1c(Sc2cc(C(F)(F)F)ccc2C#N)n[nH]c1=O	182
CCCCc1nccn1Cc1ccc2oc(-c3ccccc3C(=O)O)c(Br)c2c1	138 to 145
CCCCC1CCc2cc(C(=O)C(C)C)cc3c(CCN4CCN(c5cc(C)ccn5)CC4)c(C)n1c23 (stereo not drawn)	150
COC(=O)CCC(=O)Nc1cccc(Oc2nc3ccccc3s2)c1	78 to 82
c1ccc2cc(OCCCNC3CCCCC3)ccc2c1	98
COC(=O)C1(CCCCCCCCCCCCC2(C(=O)NC3CC3)CC2)CC1	50.6 to 53
CC(C)(C)C(CSC(F)F)=NO	92 to 95
N#CC1(c2ccccc2)CCN(C(=O)N2CCCc3ccccc32)CC1	53 to 59
CCCc1nc2ccnn2c(Cl)c1Cc1ccc(-c2ccccc2C#N)cc1	137
CCCCCCCCCCCCCCCCCCOCCSCCOC(=O)N(Cc1ccccn1)C(C)=O	47 to 49
Cn1nnnc1CN1CCC[C@@H](OCc2cc(C(F)(F)F)cc(C(F)(F)F)c2)[C@H]1c1ccccc1 (relative stereo)	75 to 77
CCOC(=O)c1cnc2nc(C)c(OCC)cc2c1Cl	> 250
CCN1CC(C)=CC2=C1N1CN(OC)C=C1N=N2	202 to 203
Cn1c(C(F)(F)F)ccc(-c2cc3[nH]c(=O)oc3cc2Cl)c1=O	263 to 265
COc1ccc(S(=O)(=O)N2CCC[C@H]2C(=O)NO)cc1	164 to 166
COc1ccc(C(=O)O)c(OCc2ccccc2)c1	99 to 101
CCc1nc2c(C)cc(C)nc2n1Cc1ccc(-c2ccccc2-c2c(N)c(=O)c2=O)cc1	217
CC(C)(C)c1cc(C(=O)c2ccco2)cc2c1OCC2(C)C	103 to 104
C[C@]12CCC(=O)N[C@@H]1CCc1cc(Sc3ccccn3)ccc12	223 to 225
Cc1cc(C#N)ccc1N1CCN(C(=O)OC(C)(C)C)CC1	127 to 131
Cc1ccc(-c2cc(C(F)(F)F)nn2-c2ccc(S(N)(=O)=O)c(F)c2)cc1	126 to 128
NC(=O)C(NC(=O)OCc1ccccc1)c1ccc(CC2CC2)[nH]1 (stereo not drawn)	184 to 185

Structure (SMILES)	melting point [°C]
CC1(C)COc2cc3c(cc21)C1(CO3)CN(Cc2ccccn2)c2ccccc21 (stereo not drawn)	145 to 147
CCCC[Si](C)(C)CCCSCCCNC(=O)n1cc(F)c(=O)[nH]c1=O	71 to 72
CC[C@@H](NC(=O)N1CC(=O)NC[C@@H](Cc2cc(Cl)ccc2OC)C1=O)c1cncc(C(=O)O)c1	138 to 140
COC(=O)c1ccc(C(=O)CC(=O)OCc2ccccc2)cc1	71
c1cnc2[nH]c(C3CCNC3)cc2c1 (stereo not drawn)	130 to 133
COC(=O)c1cncc(SCc2ccc(OC)cc2)c1	72 to 74
O=C(CCCCC1CCSS1)N1CCN(c2ccc([N+](=O)[O-])cc2)CC1 (stereo not drawn)	97.6 to 98.5
O=C(c1ccccc1)n1c2c(c3ccccc31)CC(CO)CC2 (stereo not drawn)	105 to 107
N#Cc1ccc(-c2ccc(OCC(COc3ccccc3)N(O)C=O)cc2)cc1 (stereo not drawn)	133 to 135
CC1(C)OCCc2c1n(Cc1ccccc1)c1ccccc21	132 to 134
CC(C)(C)OC(=O)N1CCN(c2ccc(OCc3ccccc3)cn2)CC1	93 to 94
CN(CCF)C1CN(c2ccc(N3C[C@H](CN=[N+]=[N-])OC3=O)cc2F)C1	60 to 63
COC(C)CC(=O)NC1CCC(CCN2CCN(c3nccc4c3CCO4)CC2)CC1 (stereo not drawn)	167
CC(C)(C)C(NC(=O)c1cccc(Cl)c1)Nc1c(Nc2ccc(C(F)(F)F)nc2)c(=O)c1=O (stereo not drawn)	226 to 227
Cc1cccc(C)c1N1CCN(CCC2CN(C)C(=O)O2)CC1 (stereo not drawn)	107 to 108
O=C(O)CCCCN1C(=O)NC(=O)C1(c1ccccc1)c1ccccc1	207
CCCCCCCCCCCCc1nnn(C(C(N)=O)(c2ccccc2)c2ccc(F)cc2F)n1 (stereo not drawn)	62 to 64
CCc1cc(NC(=O)N2CCN(c3cc(N4CCCC4)nc(N4CCCC4)n3)CC2)c(OC)nc1C	162 to 166
O=C1NC(=O)C2CC(SC3=CCC4C(=O)NC(=O)C4C3)=CCC12 (stereo not drawn)	204 to 208
COc1ccccc1-c1ccc(C(=O)N2Cc3ccc(C(=O)NCc4cccn4C)n3Cc3ccccc32)cc1	148 to 150
COC(=O)C(C)c1ccc2cc(OC(=O)CO[N+](=O)[O-])ccc2c1 (stereo not drawn)	72 to 74
COc1ccc(-n2c(-c3ccc(OCCCl)cc3)nc3c(OC)cccc3c2=O)cc1	151 to 152
CC(C)(C)c1cc(CCc2ccccc2NC(=O)Nc2ccccc2)cc(C(C)(C)C)c1O	207
Fc1ccc2c(CCN=c3sc4ccccc4s3)c[nH]c2c1	193
Nc1cccc(-c2ccc(CCN3CCN(c4nccn4-c4ccccc4)CC3)cc2)n1	140 to 142

Structure (SMILES)	melting point [°C]
COC1CN(C(=O)c2cnn(C)c2C(=O)Nc2ccn3nc(-c4cccc(F)c4)nc3c2)C1	255 to 257
COc1cccc(-c2[nH]c(-c3ccc(N)cc3)nc2C(=O)Nc2nccs2)c1	262 to 263
CC(=O)NCCc1cccc2ccc(OCCCCOc3ccc4occ(CCNC(C)=O)c4c3)cc12	160 to 162
NC(=O)N1CCC(c2nn(-c3ccccc3)c3cc(F)ccc23)CC1	149 to 151
COCCS(=O)(=O)c1ccccc1S(N)(=O)=O	120 to 123
N#Cc1c(N2CCc3ccccc3CC2)nc2n(c1=O)CCC2	184 to 190
Cc1ccc(S(=O)(=O)NC(=O)OCCc2ccc(-n3c(C(C)C)nc4c(C)nc(C)cc43)cc2)cc1	213
COC(=O)C1=C(C#N)NC(C)=C(C(=O)OCC(C)(C)C)C1c1ccccc1C#N (stereo not drawn)	173 to 174
COC(=O)c1ccc(N=Cc2ccc(Cl)c(Cl)c2)cn1	202 to 207
COC(=O)/C=C/C=C(\c1ccccc1)c1ccc(OC)cc1	88 to 89.5
CCCCCC(=O)N(C)Cc1cc(-c2ccc(C[C@H](OCC)C(=O)O)cc2)cs1	65
O=C(c1cc(O)c(O)c([N+](=O)[O-])c1)c1nc2ccccc2[nH]1	240 to 250
C/C(=C\CNc1ncnc2nc(N(C)C)[nH]c12)CO	245 to 249
O=C(O)c1ccc(S(=O)(=O)Nc2ccc(F)c(C(F)(F)F)c2)cc1	238 to 241
CCCCOc1ncc(C(C)=O)cc1-c1nc2c(CC)n(C3CN(C(=O)OC(C)(C)C)C3)nc2c(=O)[nH]1	176 to 178
CC(NC(Nc1cccnc1)=C(C#N)S(=O)(=O)c1ccc(Cl)cc1)C(C)(C)C (stereo not drawn)	172 to 174
N#CCCc1ccc(C(=O)O)cc1	182
Nc1c(Cl)cc(Cn2nc(-c3ccc(Cl)c(Cl)c3)oc2=O)c(O)c1Cl	200 to 202
FC(F)(F)c1cnc(CNC(=S)Nc2ccccc2Cl)c(Cl)c1	126
CCCO[C@@H](C)C(=O)Oc1ccc(C(=O)O)cc1	84
CCc1cccc(C(O)c2nc(OC)cc(OC)n2)c1N (stereo not drawn)	85 to 86
c1ccc(COc2ccc3c(c2)N=C(NCc2cccnc2)c2ccccc2N3)cc1	196 to 197
O=C1C(=O)c2ccccc2C2=C1SCC1(CCN(CCCOc3ccc(F)cc3)CC1)O2	164 to 165
